# Like-named read-outs stand apart in the source and are kept apart here.
# Tested on: patients with HCV and HBV liver cirrhosis
# Type: in vivo, human
# [1] = Phase 1 140 mg/m^2/4h (n = 3), Grade 1-2
# [2] = Phase 1 140 mg/m^2/4h (n = 3), Grade 3
# [3] = Phase 1 280 mg/m^2/4h (n = 6), Grade 1-2
# [4] = Phase 1 280 mg/m^2/4h (n = 6), Grade 3
# [5] = Phase 1 380 mg/m^2/4h (n = 6), Grade 1-2
# [6] = Phase 1 380 mg/m^2/4h (n = 6), Grade 3
# [7] = Phase 2a 280 mg/m^2/4h, Phase 1/ 2a (n = 3), Grade 1-2
# [8] = Phase 2a 280 mg/m^2/4h, Phase 1/ 2a (n = 3), Grade 3
# [9] = Phase 2a 280 mg/m^2/4h, Phase 2a only (n = 12), Grade 1-2
# [10] = Phase 2a 280 mg/m^2/4h, Phase 2a only (n = 12), Grade 3
substance,measurement,setting,value
PRI-724,Liver dysfunction at the recommended dose,"Level 2, 280 mg/m^2/4 h",minor and transient
same,AE: Anaemia,[1],0
same,AE: Ascites,[1],0
same,AE: Decreased appetite,[1],0
same,AE: Diarrhea,[1],0
same,AE: Dyspepsia,[1],0
same,AE: Erythema,[1],0
same,AE: Headache,[1],0
same,AE: Hepatic function abnormal,[1],1 (33%)
same,AE: Hypertension,[1],0
same,AE: Hyperuricaemia,[1],0
same,AE: Insomnia,[1],0
same,AE: Muscle spasms,[1],0
same,AE: Nasopharyngitis,[1],1 (33%)
same,AE: Nausea,[1],0
same,AE: Pruritus,[1],0
same,AE: Puncture site pain,[1],0
same,AE: Pyrexia,[1],0
same,AE: Spontaneous bacterial peritonitis,[1],0
same,AE: Viral infection,[1],0
same,AE: Vomiting,[1],0
same,Laboratory abnormality: Alanine aminotransferase increased,[1],0
same,Laboratory abnormality: Aspartate aminotransferase increased,[1],0
same,Laboratory abnormality: Blood creatine phosphokinase increased,[1],0
same,Laboratory abnormality: Blood creatinine increased,[1],0
same,Laboratory abnormality: C-reactive protein increased,[1],0
same,SAE: Anaemia,[1],0
same,SAE: Hepatic function abnormal,[1],0
same,SAE: Spontaneous bacterial peritonitis,[1],0
same,SAE: Viral infection,[1],0
same,AE: Anaemia,[2],0
same,AE: Ascites,[2],0
same,AE: Decreased appetite,[2],0
same,AE: Diarrhea,[2],0
same,AE: Dyspepsia,[2],0
same,AE: Erythema,[2],0
same,AE: Headache,[2],0
same,AE: Hepatic function abnormal,[2],0
same,AE: Hypertension,[2],0
same,AE: Hyperuricaemia,[2],0
same,AE: Insomnia,[2],0
same,AE: Muscle spasms,[2],0
same,AE: Nasopharyngitis,[2],0
same,AE: Nausea,[2],0
same,AE: Pruritus,[2],0
same,AE: Puncture site pain,[2],0
same,AE: Pyrexia,[2],0
same,AE: Spontaneous bacterial peritonitis,[2],0
same,AE: Viral infection,[2],0
same,AE: Vomiting,[2],0
same,Laboratory abnormality: Alanine aminotransferase increased,[2],0
same,Laboratory abnormality: Aspartate aminotransferase increased,[2],0
same,Laboratory abnormality: Blood creatine phosphokinase increased,[2],0
same,Laboratory abnormality: Blood creatinine increased,[2],0
same,Laboratory abnormality: C-reactive protein increased,[2],0
same,SAE: Anaemia,[2],0
same,SAE: Hepatic function abnormal,[2],0
same,SAE: Spontaneous bacterial peritonitis,[2],0
same,SAE: Viral infection,[2],0
same,AE: Anaemia,[3],0
same,AE: Ascites,[3],1 (17%)
same,AE: Decreased appetite,[3],2 (33%)
same,AE: Diarrhea,[3],1 (17%)
same,AE: Dyspepsia,[3],1 (17%)
same,AE: Erythema,[3],0
same,AE: Headache,[3],1 (17%)
same,AE: Hepatic function abnormal,[3],1 (17%)
same,AE: Hypertension,[3],1 (17%)
same,AE: Hyperuricaemia,[3],0
same,AE: Insomnia,[3],1 (17%)
same,AE: Muscle spasms,[3],2 (33%)
same,AE: Nasopharyngitis,[3],1 (17%)
same,AE: Nausea,[3],2 (33%)
same,AE: Pruritus,[3],1 (17%)
same,AE: Puncture site pain,[3],1 (17%)
same,AE: Pyrexia,[3],0
same,AE: Spontaneous bacterial peritonitis,[3],0
same,AE: Viral infection,[3],0
same,AE: Vomiting,[3],2 (33%)
same,Laboratory abnormality: Alanine aminotransferase increased,[3],0
same,Laboratory abnormality: Aspartate aminotransferase increased,[3],0
same,Laboratory abnormality: Blood creatine phosphokinase increased,[3],0
same,Laboratory abnormality: Blood creatinine increased,[3],0
same,Laboratory abnormality: C-reactive protein increased,[3],0
same,SAE: Anaemia,[3],0
same,SAE: Hepatic function abnormal,[3],0
same,SAE: Spontaneous bacterial peritonitis,[3],0
same,SAE: Viral infection,[3],0
same,AE: Anaemia,[4],0
same,AE: Ascites,[4],0
same,AE: Decreased appetite,[4],0
same,AE: Diarrhea,[4],1 (17%)
same,AE: Dyspepsia,[4],0
same,AE: Erythema,[4],0
same,AE: Headache,[4],0
same,AE: Hepatic function abnormal,[4],0
same,AE: Hypertension,[4],0
same,AE: Hyperuricaemia,[4],0
same,AE: Insomnia,[4],0
same,AE: Muscle spasms,[4],0
same,AE: Nasopharyngitis,[4],0
same,AE: Nausea,[4],0
same,AE: Pruritus,[4],0
same,AE: Puncture site pain,[4],0
same,AE: Pyrexia,[4],0
same,AE: Spontaneous bacterial peritonitis,[4],0
same,AE: Viral infection,[4],0
same,AE: Vomiting,[4],0
same,Laboratory abnormality: Alanine aminotransferase increased,[4],1 (17%)
same,Laboratory abnormality: Aspartate aminotransferase increased,[4],1 (17%)
same,Laboratory abnormality: Blood creatine phosphokinase increased,[4],0
same,Laboratory abnormality: Blood creatinine increased,[4],0
same,Laboratory abnormality: C-reactive protein increased,[4],0
same,SAE: Anaemia,[4],0
same,SAE: Hepatic function abnormal,[4],0
same,SAE: Spontaneous bacterial peritonitis,[4],0
same,SAE: Viral infection,[4],0
same,AE: Anaemia,[5],0
same,AE: Ascites,[5],1 (17%)
same,AE: Decreased appetite,[5],1 (17%)
same,AE: Diarrhea,[5],2 (33%)
same,AE: Dyspepsia,[5],0
same,AE: Erythema,[5],0
same,AE: Headache,[5],1 (17%)
same,AE: Hepatic function abnormal,[5],0
same,AE: Hypertension,[5],0
same,AE: Hyperuricaemia,[5],0
same,AE: Insomnia,[5],1 (17%)
same,AE: Muscle spasms,[5],0
same,AE: Nasopharyngitis,[5],0
same,AE: Nausea,[5],2 (33%)
same,AE: Pruritus,[5],0
same,AE: Puncture site pain,[5],0
same,AE: Pyrexia,[5],2 (33%)
same,AE: Spontaneous bacterial peritonitis,[5],0
same,AE: Viral infection,[5],0
same,AE: Vomiting,[5],1 (17%)
same,Laboratory abnormality: Alanine aminotransferase increased,[5],0
same,Laboratory abnormality: Aspartate aminotransferase increased,[5],1 (17%)
same,Laboratory abnormality: Blood creatine phosphokinase increased,[5],1 (17%)
same,Laboratory abnormality: Blood creatinine increased,[5],0
same,Laboratory abnormality: C-reactive protein increased,[5],1 (17%)
same,SAE: Anaemia,[5],0
same,SAE: Hepatic function abnormal,[5],0
same,SAE: Spontaneous bacterial peritonitis,[5],0
same,SAE: Viral infection,[5],0
same,AE: Anaemia,[6],0
same,AE: Ascites,[6],0
same,AE: Decreased appetite,[6],0
same,AE: Diarrhea,[6],0
same,AE: Dyspepsia,[6],0
same,AE: Erythema,[6],0
same,AE: Headache,[6],0
same,AE: Hepatic function abnormal,[6],1 (17%)
same,AE: Hypertension,[6],0
same,AE: Hyperuricaemia,[6],0
same,AE: Insomnia,[6],0
same,AE: Muscle spasms,[6],0
same,AE: Nasopharyngitis,[6],0
same,AE: Nausea,[6],0
same,AE: Pruritus,[6],0
same,AE: Puncture site pain,[6],0
same,AE: Pyrexia,[6],0
same,AE: Spontaneous bacterial peritonitis,[6],0
same,AE: Viral infection,[6],1 (17%)
same,AE: Vomiting,[6],0
same,Laboratory abnormality: Alanine aminotransferase increased,[6],0
same,Laboratory abnormality: Aspartate aminotransferase increased,[6],0
same,Laboratory abnormality: Blood creatine phosphokinase increased,[6],0
same,Laboratory abnormality: Blood creatinine increased,[6],0
same,Laboratory abnormality: C-reactive protein increased,[6],0
same,SAE: Anaemia,[6],0
same,SAE: Hepatic function abnormal,[6],1 (17%)
same,SAE: Spontaneous bacterial peritonitis,[6],0
same,SAE: Viral infection,[6],1 (17%)
same,Serious adverse events (SAEs) observed,"Phase 1/2a, 27 patients",four SAEs among three (one from phase 1 and two from phase 2a) of the 27 patients
same,AE: Anaemia,[7],0
same,AE: Ascites,[7],0
same,AE: Decreased appetite,[7],1 (33%)
same,AE: Diarrhea,[7],1 (33%)
same,AE: Dyspepsia,[7],0
same,AE: Erythema,[7],0
same,AE: Headache,[7],0
same,AE: Hepatic function abnormal,[7],0
same,AE: Hypertension,[7],1 (33%)
same,AE: Hyperuricaemia,[7],0
same,AE: Insomnia,[7],1 (33%)
same,AE: Muscle spasms,[7],0
same,AE: Nasopharyngitis,[7],0
same,AE: Nausea,[7],1 (33%)
same,AE: Pruritus,[7],0
same,AE: Puncture site pain,[7],1 (33%)
same,AE: Pyrexia,[7],0
same,AE: Spontaneous bacterial peritonitis,[7],0
same,AE: Viral infection,[7],0
same,AE: Vomiting,[7],1 (33%)
same,Laboratory abnormality: Alanine aminotransferase increased,[7],0
same,Laboratory abnormality: Aspartate aminotransferase increased,[7],0
same,Laboratory abnormality: Blood creatine phosphokinase increased,[7],0
same,Laboratory abnormality: Blood creatinine increased,[7],0
same,Laboratory abnormality: C-reactive protein increased,[7],0
same,SAE: Anaemia,[7],0
same,SAE: Hepatic function abnormal,[7],0
same,SAE: Spontaneous bacterial peritonitis,[7],0
same,SAE: Viral infection,[7],0
same,AE: Anaemia,[8],0
same,AE: Ascites,[8],0
same,AE: Decreased appetite,[8],0
same,AE: Diarrhea,[8],0
same,AE: Dyspepsia,[8],0
same,AE: Erythema,[8],0
same,AE: Headache,[8],0
same,AE: Hepatic function abnormal,[8],0
same,AE: Hypertension,[8],0
same,AE: Hyperuricaemia,[8],0
same,AE: Insomnia,[8],0
same,AE: Muscle spasms,[8],0
same,AE: Nasopharyngitis,[8],0
same,AE: Nausea,[8],0
same,AE: Pruritus,[8],0
same,AE: Puncture site pain,[8],0
same,AE: Pyrexia,[8],0
same,AE: Spontaneous bacterial peritonitis,[8],0
same,AE: Viral infection,[8],0
same,AE: Vomiting,[8],0
same,Laboratory abnormality: Alanine aminotransferase increased,[8],0
same,Laboratory abnormality: Aspartate aminotransferase increased,[8],0
same,Laboratory abnormality: Blood creatine phosphokinase increased,[8],0
same,Laboratory abnormality: Blood creatinine increased,[8],0
same,Laboratory abnormality: C-reactive protein increased,[8],0
same,SAE: Anaemia,[8],0
same,SAE: Hepatic function abnormal,[8],0
same,SAE: Spontaneous bacterial peritonitis,[8],0
same,SAE: Viral infection,[8],0
same,AE: Anaemia,[9],0
same,AE: Ascites,[9],0
same,AE: Decreased appetite,[9],3 (25%)
same,AE: Diarrhea,[9],2 (17%)
same,AE: Dyspepsia,[9],0
same,AE: Erythema,[9],2 (17%)
same,AE: Headache,[9],1 (8%)
same,AE: Hepatic function abnormal,[9],1 (8%)
same,AE: Hypertension,[9],0
same,AE: Hyperuricaemia,[9],1 (8%)
same,AE: Insomnia,[9],0
same,AE: Muscle spasms,[9],0
same,AE: Nasopharyngitis,[9],1 (8%)
same,AE: Nausea,[9],2 (17%)
same,AE: Pruritus,[9],2 (17%)
same,AE: Puncture site pain,[9],0
same,AE: Pyrexia,[9],0
same,AE: Spontaneous bacterial peritonitis,[9],0
same,AE: Viral infection,[9],0
same,AE: Vomiting,[9],1 (8%)
same,Laboratory abnormality: Alanine aminotransferase increased,[9],2 (17%)
same,Laboratory abnormality: Aspartate aminotransferase increased,[9],3 (25%)
same,Laboratory abnormality: Blood creatine phosphokinase increased,[9],0
same,Laboratory abnormality: Blood creatinine increased,[9],1 (8%)
same,Laboratory abnormality: C-reactive protein increased,[9],0
same,SAE: Anaemia,[9],0
same,SAE: Hepatic function abnormal,[9],0
same,SAE: Spontaneous bacterial peritonitis,[9],0
same,SAE: Viral infection,[9],0
same,AE: Anaemia,[10],2 (17%)
same,AE: Ascites,[10],0
same,AE: Decreased appetite,[10],0
same,AE: Diarrhea,[10],1 (8%)
same,AE: Dyspepsia,[10],0
same,AE: Erythema,[10],0
same,AE: Headache,[10],0
same,AE: Hepatic function abnormal,[10],0
same,AE: Hypertension,[10],1 (8%)
same,AE: Hyperuricaemia,[10],1 (8%)
same,AE: Insomnia,[10],0
same,AE: Muscle spasms,[10],0
same,AE: Nasopharyngitis,[10],0
same,AE: Nausea,[10],0
same,AE: Pruritus,[10],0
same,AE: Puncture site pain,[10],0
same,AE: Pyrexia,[10],0
same,AE: Spontaneous bacterial peritonitis,[10],1 (8%)
same,AE: Viral infection,[10],0
same,AE: Vomiting,[10],0
same,Laboratory abnormality: Alanine aminotransferase increased,[10],1 (8%)
same,Laboratory abnormality: Aspartate aminotransferase increased,[10],0
same,Laboratory abnormality: Blood creatine phosphokinase increased,[10],0
same,Laboratory abnormality: Blood creatinine increased,[10],0
same,Laboratory abnormality: C-reactive protein increased,[10],0
same,SAE: Anaemia,[10],1 (8%)
same,SAE: Hepatic function abnormal,[10],0
same,SAE: Spontaneous bacterial peritonitis,[10],1 (8%)
same,SAE: Viral infection,[10],0
same,"AE liver dysfunction, patients","all patients, 4/27",15%
same,"AE vomiting, patients","all patients, 4/27",15%
same,"AE loss of appetite, patients","all patients, 6/27",22%
same,"AE nausea, patients","all patients, 6/27",22%
same,"AE diarrhoea, patients","all patients, 7/27",26%
same,SAEs related to PRI-724,observed in the 380 mg/m^2/4 h cohort (liver dysfunction: grade 3),One of the four SAEs was possibly related to the PRI-724

# From article PMC9126795 (eBioMedicine, 2022)
